# Data reported in patent publication US8835134B2, “Cycloastragenol monoglucoside, preparation, pharmaceutical composition and application thereof” (Tianjin Institute of Pharmaceutical Research, priority 2007, dated 2014).
# Test system: anesthetized open-chest dogs
# Assay: Hemodynamics of anesthetized open-chest dogs, intravenous infusion
# Type: in vivo, mongrel dogs
# Experimental: The animals were anesthetized by intravenous injection of 30 mg/kg sodium pentobarbital, tracheally intubated, and mechanically ventilated with positive air pressure. Left thoracotomy was performed through the fourth intercostal space and the heart was suspended in a pericardial cradle, the aortic root was isolated and a probe of blood flow meter (12 or 14 mm in diameter) was fixed to measure the aortic blood flow as a representation of cardiac output (CO), the circumflex branch of left coronary artery was isolated and a probe of blood flow meter (2 or 2.5 mm in diameter) was fixed to measure the coronary blood flow (CBF). A polyethylene catheter filled with heparin physiological saline was inserted through cardiac apex into the left ventricle to measure the left ventricular pressure (LVP) and left ventricular end-diastolic pressure (LVEDP), Peak positive and peak negative first derivatives of the LVP (+ LVdp/dt and − LVdp/dt) were calculated with the Acknowledge software. The systolic blood pressure (SBP), diastolic blood pressure (DBP) and mean arterial pressure (MAP) were measured by polyethylene catheter via the femoral artery, ECG □ was measured by a AC-601G ECG amplifier. The above-mentioned analog signal was input into a data acquisition workstation (MP100, BIOPAC Systems, USA) to a computer running Acknowledge (version 3.7.1).
# After surgery, various indexes before administration were recorded until the indexes were stable, and then intravenous infusion administration was conducted. Thirty dogs were divided into five groups (six dogs in each group), the experiment groups were given 0.15, 0.3, 0.6 mg/kg of ASP-[…] respectively, the normal control group was given 1 ml/kg of solvent, and the positive control group was given 0.3 mg/kg of astragaloside IV. The delivery volumes were 15 ml for each dog was and the delivery velocity was 1 ml/min. The indexes were recorded at 5, 10, 15, 20, 30, 45, 60, 90 and 120 mins after drug administration. At the end of experiment, the hearts were excised and weighted. The myocardial blood flow for per hectogram (CF), coronary resistance (CR), cardiac index (CI), left ventricular work (LVW) and total peripheral resistance (TPR) were calculated according to the following formulae: CF=CBF×[…]/heart weight CR=MAP/CF CI=CO/0.11×(body weight)^2/3 LVW=CO×(MAP−5)×1.052×0.0136 TPR=MAP×79.92/CO
# Data are expressed as mean±SD ( x±s), the paired t-test was used to compare the significance between before and after administration, the unpaired t-test was adopted for comparison between groups.
# [1] = 0.6 mg/kg iv, 15 min after administration
# [2] = 0.6 mg/kg iv, 20 min after administration
# [3] = 0.6 mg/kg iv, 30 min after administration
# [4] = 0.6 mg/kg iv, 45 min after administration
# [5] = 0.6 mg/kg iv, 60 min after administration
# [6] = 0.6 mg/kg iv, 90 min after administration
# [7] = 0.6 mg/kg iv, 120 min after administration
# [8] = 0.6 mg/kg iv, before administration
# [9] = 0.15, 0.3 and 0.6 mg/kg iv, within 120 min
structure (smiles),measurement,setting,value
"CC(C)(O)[C@@H]1CC[C@](C)([C@H]2[C@@H](O)C[C@@]3(C)C4C[C@H](OC5OC(CO)C(O)C(O)C5O)C5C(C)(C)[C@@H](O)CC[C@@]56C[C@@]46CC[C@]23C)O1 (stereo partly drawn) [CMG, Cycloastragenol-6-O-β-D-glucoside]",LVW change vs before administration,[1],(0.06 ± 0.13) kg · m
same,TPR,[1],5249 ± 2234 dyn · s/cm^5
same,TPR change vs before administration,[1],(−258 ± 392) dyn · s/cm^5
same,dp/dt,[1],1199 ± 288 mmHg/s
same,dp/dt change vs before administration,[1],(95 ± 56) mmHg/s
same,−dp/dt,[1],−851 ± 196 mmHg/s
same,−dp/dt change vs before administration,[1],(2 ± 98) mmHg/s
same,CF,[2],49.8 ± 8.0 ml/min/100 g
same,CF change vs before administration,[2],(−1.4 ± 1.4) ml/min/100 g
same,CI,[2],2.05 ± 0.41 L/min/m^2
same,CI change vs before administration,[2],(0.09 ± 0.18) L/min/m^2
same,CO,[2],1.19 ± 0.34 L/min
same,CO change vs before administration,[2],(0.05 ± 0.10) L/min
same,CR,[2],1.48 ± 0.36 mmHg/ml/min/100 g
same,CR change vs before administration,[2],(0.06 ± 0.10) mmHg/ml/min/100 g
same,LVEDP,[2],1.2 ± 1.6 mmHg
same,LVEDP change vs before administration,[2],(−1.5 ± 0.54) mmHg
same,LVP,[2],107 ± 17 mmHg
same,LVP change vs before administration,[2],(0.4 ± 3.9) mmHg
same,LVW,[2],1.13 ± 0.35 kg · m
same,LVW change vs before administration,[2],(0.06 ± 0.17) kg · m
same,TPR,[2],5176 ± 1818 dyn · s/cm^5
same,TPR change vs before administration,[2],(−331 ± 534) dyn · s/cm^5
same,dp/dt,[2],1276 ± 339 mmHg/s
same,dp/dt change vs before administration,[2],(172 ± 151) mmHg/s
same,−dp/dt,[2],−842 ± 220 mmHg/s
same,−dp/dt change vs before administration,[2],(10 ± 91) mmHg/s
same,CF,[3],50.7 ± 8.5 ml/min/100 g
same,CF change vs before administration,[3],(−0.5 ± 4.0) ml/min/100 g
same,CI,[3],2.05 ± 0.57 L/min/m^2
same,CI change vs before administration,[3],(0.09 ± 0.12) L/min/m^2
same,CO,[3],1.20 ± 0.43 L/min
same,CO change vs before administration,[3],(0.05 ± 0.07) L/min
same,CR,[3],1.46 ± 0.38 mmHg/ml/min/100 g
same,CR change vs before administration,[3],(0.04 ± 0.08) mmHg/ml/min/100 g
same,LVEDP,[3],1.3 ± 1.5 mmHg
same,LVEDP change vs before administration,[3],(−1.4 ± 0.6) mmHg
same,LVP,[3],107 ± 17 mmHg
same,LVP change vs before administration,[3],(0.9 ± 5.6) mmHg
same,LVW,[3],1.15 ± 0.45 kg · m
same,LVW change vs before administration,[3],(0.07 ± 0.13) kg · m
same,TPR,[3],5406 ± 2485 dyn · s/cm^5
same,TPR change vs before administration,[3],(−101 ± 366) dyn · s/cm^5
same,dp/dt,[3],1232 ± 274 mmHg/s
same,dp/dt change vs before administration,[3],(128 ± 108) mmHg/s
same,−dp/dt,[3],−833 ± 243 mmHg/s
same,−dp/dt change vs before administration,[3],(20 ± 96) mmHg/s
same,CF,[4],50.4 ± 7.8 ml/min/100 g
same,CF change vs before administration,[4],(−0.8 ± 4.7) ml/min/100 g
same,CI,[4],1.97 ± 0.30 L/min/m^2
same,CI change vs before administration,[4],(0.01 ± 0.26) L/min/m^2
same,CO,[4],1.15 ± 0.27 L/min
same,CO change vs before administration,[4],(0.00 ± 0.15) L/min
same,CR,[4],1.48 ± 0.35 mmHg/ml/min/100 g
same,CR change vs before administration,[4],(0.06 ± 0.16) mmHg/ml/min/100 g
same,LVEDP,[4],1.3 ± 1.7 mmHg
same,LVEDP change vs before administration,[4],(−1.41 ± 0.81) mmHg
same,LVP,[4],106 ± 16 mmHg
same,LVP change vs before administration,[4],(0.2 ± 5.2) mmHg
same,LVW,[4],1.1 ± 0.29 kg · m
same,LVW change vs before administration,[4],(0.03 ± 0.23) kg · m
same,TPR,[4],5337 ± 1723 dyn · s/cm^5
same,TPR change vs before administration,[4],(−170 ± 595) dyn · s/cm^5
same,dp/dt,[4],1181 ± 320 mmHg/s
same,dp/dt change vs before administration,[4],(77 ± 53) mmHg/s
same,−dp/dt,[4],−842 ± 170 mmHg/s
same,−dp/dt change vs before administration,[4],(10 ± 126) mmHg/s
same,CF,[5],50.2 ± 11.6 ml/min/100 g
same,CF change vs before administration,[5],(−1.0 ± 6.9) ml/min/100 g
same,CI,[5],2.04 ± 0.36 L/min/m^2
same,CI change vs before administration,[5],(0.08 ± 0.24) L/min/m^2
same,CO,[5],1.19 ± 0.32 L/min
same,CO change vs before administration,[5],(0.04 ± 0.13) L/min
same,CR,[5],1.53 ± 0.47 mmHg/ml/min/100 g
same,CR change vs before administration,[5],(0.11 ± 0.26) mmHg/ml/min/100 g
same,LVEDP,[5],1.6 ± 1.6 mmHg
same,LVEDP change vs before administration,[5],(−1.05 ± 0.76) mmHg
same,LVP,[5],105 ± 14 mmHg
same,LVP change vs before administration,[5],(−0.8 ± 7.7) mmHg
same,LVW,[5],1.17 ± 0.40 kg · m
same,LVW change vs before administration,[5],(0.10 ± 0.20) kg · m
same,TPR,[5],5170 ± 1416 dyn · s/cm^5
same,TPR change vs before administration,[5],(−336 ± 1012) dyn · s/cm^5
same,dp/dt,[5],1199 ± 294 mmHg/s
same,dp/dt change vs before administration,[5],(95 ± 76) mmHg/s
same,−dp/dt,[5],−829 ± 157 mmHg/s
same,−dp/dt change vs before administration,[5],(24 ± 167) mmHg/s
same,CF,[6],48.6 ± 7.2 ml/min/100 g
same,CF change vs before administration,[6],(−2.6 ± 2.8) ml/min/100 g
same,CI,[6],2.09 ± 0.53 L/min/m^2
same,CI change vs before administration,[6],(0.13 ± 0.20) L/min/m^2
same,CO,[6],1.22 ± 0.40 L/min
same,CO change vs before administration,[6],(0.07 ± 0.12) L/min
same,CR,[6],1.52 ± 0.37 mmHg/ml/min/100 g
same,CR change vs before administration,[6],(0.11 ± 0.12) mmHg/ml/min/100 g
same,LVEDP,[6],1.3 ± 1.4 mmHg
same,LVEDP change vs before administration,[6],(−1.35 ± 0.72) mmHg
same,LVP,[6],105 ± 12 mmHg
same,LVP change vs before administration,[6],(−1.3 ± 6.7) mmHg
same,LVW,[6],1.17 ± 0.44 kg · m
same,LVW change vs before administration,[6],(0.10 ± 0.11) kg · m
same,TPR,[6],5285 ± 2431 dyn · s/cm^5
same,TPR change vs before administration,[6],(−222 ± 606) dyn · s/cm^5
same,dp/dt,[6],1152 ± 313 mmHg/s
same,dp/dt change vs before administration,[6],(48 ± 63) mmHg/s
same,−dp/dt,[6],−815 ± 238 mmHg/s
same,−dp/dt change vs before administration,[6],(37 ± 55) mmHg/s
same,CF,[7],49.3 ± 7.3 ml/min/100 g
same,CF change vs before administration,[7],(−1.9 ± 5.0) ml/min/100 g
same,CI,[7],2.07 ± 0.47 L/min/m^2
same,CI change vs before administration,[7],(0.11 ± 0.22) L/min/m^2
same,CO,[7],1.21 ± 0.38 L/min
same,CO change vs before administration,[7],(0.06 ± 0.13) L/min
same,CR,[7],1.42 ± 0.27 mmHg/ml/min/100 g
same,CR change vs before administration,[7],(0.00 ± 0.17) mmHg/ml/min/100 g
same,LVEDP,[7],2.0 ± 1.2 mmHg
same,LVEDP change vs before administration,[7],(−0.73 ± 0.52) mmHg
same,LVP,[7],102 ± 17 mmHg
same,LVP change vs before administration,[7],(−4.4 ± 5.9) mmHg
same,LVW,[7],1.12 ± 0.42 kg · m
same,LVW change vs before administration,[7],(0.04 ± 0.18) kg · m
same,TPR,[7],4925 ± 1674 dyn · s/cm^5
same,TPR change vs before administration,[7],(−582 ± 764) dyn · s/cm^5
same,dp/dt,[7],1078 ± 283 mmHg/s
same,dp/dt change vs before administration,[7],(−25 ± 109) mmHg/s
same,−dp/dt,[7],−789 ± 269 mmHg/s
same,−dp/dt change vs before administration,[7],(64 ± 63) mmHg/s
same,+LVdp/dtmax maximum increase,"0.6 mg/kg iv, at 5-10 min after administration",22.6±11.8%
same,CF,[8],51.2 ± 8.0 ml/min/100 g
same,CI,[8],1.96 ± 0.54 L/min/m^2
same,CO,[8],1.15 ± 0.40 L/min
same,CR,[8],1.41 ± 0.35 mmHg/ml/min/100 g
same,LVEDP,[8],2.7 ± 1.3 mmHg
same,LVP,[8],106 ± 16 mmHg
same,LVW,[8],1.08 ± 0.41 kg · m
same,TPR,[8],5507 ± 2267 dyn · s/cm^5
same,dp/dt,[8],1104 ± 295 mmHg/s
same,−dp/dt,[8],−852 ± 244 mmHg/s
same,duration of LVEDP decrease,"0.15, 0.3 and 0.6 mg/kg iv",more than 2 hours
same,left ventricular work (LVW),"0.15, 0.3 and 0.6 mg/kg iv",no significant change
same,CF and CR,[9],no significant changes
same,CO and CI,[9],no significant changes
same,"SBP, DBP, MAP and HR",[9],no significant changes
same,left ventricular pressure (LVP),[9],no significant change
same,total peripheral resistance (TPR),[9],no significant change
same,−LVdp/dtmax,0.3 and 0.6 mg/kg iv,no significant effect
